Assay results from the NIST ThermoML archive (doi:10.1021/je030151s).

Experiment: xn = mol fraction of the nth substance listed
Conditions: 101.3 kPa, Liquid; for viscosity: Capillary tube (Ostwald / Ubbelohde) method

CCC(=O)CC [pentan-3-one] + CCc1ccccc1
Conditions | mass density, 293.15 K [kg/m3] | mass density, 303.15 K [kg/m3] | mass density, 313.15 K [kg/m3] | speed of sound, 293.15 K [m/s] | speed of sound, 303.15 K [m/s] | speed of sound, 313.15 K [m/s] | viscosity, 293.15 K [mPa·s] | viscosity, 303.15 K [mPa·s] | viscosity, 313.15 K [mPa·s]
x1 = 0.0911 | 867 | 855.9 | 848.3 | 1328.5 | 1290.2 | 1254.5 | 0.6538 | 0.5795 | 0.5116
x1 = 0.2055 | 865.5 | 855.1 | 847 | 1319 | 1281.9 | 1246.6 | 0.625 | 0.5539 | 0.4881
x1 = 0.3176 | 863.2 | 852.8 | 844.5 | 1309.6 | 1272.2 | 1237.2 | 0.6015 | 0.5281 | 0.4642
x1 = 0.4296 | 860.1 | 849.9 | 840.8 | 1298 | 1264.5 | 1227.2 | 0.5789 | 0.5046 | 0.4429
x1 = 0.5331 | 854.8 | 845.3 | 836.6 | 1287 | 1252.3 | 1217.5 | 0.5574 | 0.486 | 0.4247
x1 = 0.6387 | 848.5 | 839.6 | 830.6 | 1275 | 1242 | 1206 | 0.534 | 0.469 | 0.411
x1 = 0.7378 | 842.5 | 833.4 | 824.5 | 1263 | 1230 | 1195 | 0.516 | 0.454 | 0.399
x1 = 0.8322 | 835 | 826.8 | 817.5 | 1251 | 1217.5 | 1184.4 | 0.4975 | 0.441 | 0.388
x1 = 0.9245 | 826 | 818 | 808 | 1240.3 | 1206.6 | 1172.5 | 0.4811 | 0.4309 | 0.38
x1 = 1 | 814.4 | 804.7 | 794.9 | 1230.7 | 1197.8 | 1159.1 | 0.4714 | 0.4231 | 0.3799

CCC(=O)CC [pentan-3-one] + Cc1ccccc1C
Conditions | mass density, 293.15 K [kg/m3] | mass density, 303.15 K [kg/m3] | mass density, 313.15 K [kg/m3] | speed of sound, 293.15 K [m/s] | speed of sound, 303.15 K [m/s] | speed of sound, 313.15 K [m/s] | viscosity, 293.15 K [mPa·s] | viscosity, 303.15 K [mPa·s] | viscosity, 313.15 K [mPa·s]
x1 = 0.0955 | 878 | 870.5 | 862.4 | 1357 | 1328 | 1287.6 | 0.7649 | 0.677 | 0.5965
x1 = 0.2073 | 875 | 868.5 | 859.4 | 1345.1 | 1315 | 1277 | 0.7182 | 0.638 | 0.565
x1 = 0.3191 | 871.1 | 863.1 | 855 | 1333.5 | 1303 | 1262 | 0.675 | 0.6003 | 0.533
x1 = 0.4298 | 865.3 | 857.3 | 848.8 | 1318.8 | 1287 | 1251 | 0.636 | 0.562 | 0.502
x1 = 0.5338 | 859.5 | 850.5 | 842.5 | 1306 | 1272 | 1238 | 0.6001 | 0.5271 | 0.474
x1 = 0.6363 | 852.1 | 844 | 835.5 | 1292.2 | 1255.8 | 1224 | 0.568 | 0.497 | 0.447
x1 = 0.7329 | 845 | 837.3 | 827.9 | 1279.4 | 1245 | 1208.3 | 0.537 | 0.4719 | 0.424
x1 = 0.8283 | 836.8 | 829.1 | 819.9 | 1266.2 | 1229 | 1194 | 0.51 | 0.4481 | 0.4034
x1 = 0.9242 | 826.3 | 817 | 808.2 | 1250.9 | 1213 | 1179.3 | 0.4882 | 0.4333 | 0.3872
x1 = 1 | 814.4 | 804.7 | 794.9 | 1230.7 | 1197.8 | 1159.1 | 0.4714 | 0.4231 | 0.3799
